Tests used:
TYRO3/SKY = biological target: T1, TYRO3/SKY (Homo sapiens, UniProt Q06418); assay: HotSpot Kinase Assay, TYRO3/SKY
T1 sequence (Q06418 41-890): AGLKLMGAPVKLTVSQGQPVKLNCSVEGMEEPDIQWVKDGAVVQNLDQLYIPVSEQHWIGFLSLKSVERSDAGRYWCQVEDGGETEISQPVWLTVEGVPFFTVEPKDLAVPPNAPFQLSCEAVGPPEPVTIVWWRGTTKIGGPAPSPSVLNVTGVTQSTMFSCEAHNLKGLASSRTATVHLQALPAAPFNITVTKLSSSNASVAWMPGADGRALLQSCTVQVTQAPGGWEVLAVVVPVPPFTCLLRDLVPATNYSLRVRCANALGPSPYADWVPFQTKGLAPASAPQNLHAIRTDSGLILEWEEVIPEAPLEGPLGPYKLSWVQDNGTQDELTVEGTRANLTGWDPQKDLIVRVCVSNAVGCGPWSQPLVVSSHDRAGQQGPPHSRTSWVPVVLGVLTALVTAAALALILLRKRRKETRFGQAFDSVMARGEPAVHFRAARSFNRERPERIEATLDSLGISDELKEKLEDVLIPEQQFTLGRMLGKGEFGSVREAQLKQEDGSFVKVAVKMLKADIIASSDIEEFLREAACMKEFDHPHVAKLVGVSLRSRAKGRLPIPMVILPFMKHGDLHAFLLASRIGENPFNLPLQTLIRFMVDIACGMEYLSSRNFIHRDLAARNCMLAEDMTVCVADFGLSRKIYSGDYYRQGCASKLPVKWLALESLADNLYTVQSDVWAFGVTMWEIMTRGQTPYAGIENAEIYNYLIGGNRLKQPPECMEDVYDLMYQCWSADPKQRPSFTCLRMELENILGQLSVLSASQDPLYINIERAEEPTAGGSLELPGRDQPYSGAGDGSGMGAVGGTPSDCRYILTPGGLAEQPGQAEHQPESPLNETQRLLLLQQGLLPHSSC
Method: (§1) Specifically, for each reaction, kinase and substrate were mixed in a pH 7.5 buffer containing 20 mM HEPES, 10 mM MgCl2, 1 mM EGTA [Ethylene glycol-bis(2-aminoethylether)-N,N,N′,N′-tetraacetic acid], 0.02% Brij35, 0.02 mg/mL BSA (Bovine Serum Albumin), 0.1 mM Na3VO4, 2 mM DTT, and 1% DMSO. Compounds were then added to each reaction mixture. After a 20-min incubation, ATP (Sigma-Aldrich) and [γ-^33P] ATP (PerkinElmer) were added at a final total concentration of 100 μM. Reactions were carried out at room temperature for 2 hours and spotted onto P81 ion exchange cellulose chromatography paper (Whatman). […] The percent remaining kinase activity relative to a vehicle-containing (DMSO) kinase reaction was calculated for each kinase/inhibitor pair. […] IC50 values were calculated using Prism 5 (GraphPad).

AXL = biological target: T2, AXL (Homo sapiens, UniProt P30530); assay: HotSpot Kinase Assay, AXL
T2 sequence (P30530 26-894): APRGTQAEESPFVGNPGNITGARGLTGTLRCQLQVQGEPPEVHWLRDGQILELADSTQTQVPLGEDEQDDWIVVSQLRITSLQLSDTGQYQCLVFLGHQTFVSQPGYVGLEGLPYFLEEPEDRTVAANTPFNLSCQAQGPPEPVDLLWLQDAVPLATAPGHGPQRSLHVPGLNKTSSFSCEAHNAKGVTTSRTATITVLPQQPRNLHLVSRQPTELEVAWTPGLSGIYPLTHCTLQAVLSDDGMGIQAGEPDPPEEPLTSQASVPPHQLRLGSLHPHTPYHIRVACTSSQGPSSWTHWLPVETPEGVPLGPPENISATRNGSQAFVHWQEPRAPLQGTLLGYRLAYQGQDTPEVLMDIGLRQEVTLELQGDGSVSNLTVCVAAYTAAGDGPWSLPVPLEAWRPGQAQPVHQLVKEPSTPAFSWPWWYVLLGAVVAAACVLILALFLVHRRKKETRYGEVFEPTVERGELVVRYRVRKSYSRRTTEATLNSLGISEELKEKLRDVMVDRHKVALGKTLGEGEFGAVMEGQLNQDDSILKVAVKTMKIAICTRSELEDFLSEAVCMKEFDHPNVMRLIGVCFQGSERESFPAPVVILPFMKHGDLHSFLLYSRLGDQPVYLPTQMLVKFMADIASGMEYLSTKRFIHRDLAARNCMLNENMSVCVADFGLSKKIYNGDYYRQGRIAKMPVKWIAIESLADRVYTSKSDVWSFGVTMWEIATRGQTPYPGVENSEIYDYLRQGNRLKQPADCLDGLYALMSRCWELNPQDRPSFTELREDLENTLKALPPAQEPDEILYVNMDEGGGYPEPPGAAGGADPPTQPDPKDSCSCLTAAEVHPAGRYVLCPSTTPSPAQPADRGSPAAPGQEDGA
Method: as §1

c-MER = biological target: T3, c-MER (Homo sapiens, UniProt Q12866); assay: HotSpot Kinase Assay, c-MER
T3 sequence (Q12866 21-999): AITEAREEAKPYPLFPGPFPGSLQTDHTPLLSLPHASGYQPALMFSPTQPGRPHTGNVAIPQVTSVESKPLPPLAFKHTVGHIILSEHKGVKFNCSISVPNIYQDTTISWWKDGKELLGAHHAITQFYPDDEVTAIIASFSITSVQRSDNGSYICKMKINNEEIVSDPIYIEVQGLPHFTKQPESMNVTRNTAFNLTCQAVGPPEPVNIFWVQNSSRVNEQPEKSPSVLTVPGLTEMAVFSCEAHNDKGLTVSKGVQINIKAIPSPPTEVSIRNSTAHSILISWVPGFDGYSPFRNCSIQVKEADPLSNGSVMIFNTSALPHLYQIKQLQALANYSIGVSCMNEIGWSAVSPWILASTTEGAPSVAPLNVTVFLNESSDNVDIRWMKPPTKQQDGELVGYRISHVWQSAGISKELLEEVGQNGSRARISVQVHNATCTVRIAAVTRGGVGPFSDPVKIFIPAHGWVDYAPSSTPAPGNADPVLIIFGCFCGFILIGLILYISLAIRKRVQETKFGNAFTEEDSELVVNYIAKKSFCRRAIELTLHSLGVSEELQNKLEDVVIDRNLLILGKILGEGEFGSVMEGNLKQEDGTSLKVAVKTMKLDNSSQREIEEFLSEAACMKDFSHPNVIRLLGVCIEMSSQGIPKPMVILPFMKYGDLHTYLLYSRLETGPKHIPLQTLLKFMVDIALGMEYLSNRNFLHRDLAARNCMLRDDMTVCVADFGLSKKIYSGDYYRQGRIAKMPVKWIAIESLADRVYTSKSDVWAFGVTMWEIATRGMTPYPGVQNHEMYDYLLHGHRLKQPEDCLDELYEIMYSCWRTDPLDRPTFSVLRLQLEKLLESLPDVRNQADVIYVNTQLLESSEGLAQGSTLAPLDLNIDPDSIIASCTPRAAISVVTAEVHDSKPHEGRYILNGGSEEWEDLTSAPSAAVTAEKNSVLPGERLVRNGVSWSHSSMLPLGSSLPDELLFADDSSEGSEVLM
Method: as §1

LOK/STK10 = LOK/STK10 (Homo sapiens, UniProt O94804); assay: HotSpot Kinase Assay, LOK/STK10
Method: as §1

c-MET = c-MET (Homo sapiens, UniProt P08581); assay: HotSpot Kinase Assay, c-MET
Method: as §1

EPHA2 = EPHA2 (Homo sapiens, UniProt P29317); assay: HotSpot Kinase Assay, EPHA2
KDR/VEGFR2 = KDR/VEGFR2 (Homo sapiens, UniProt P35968); assay: HotSpot Kinase Assay, KDR/VEGFR2
DDR1 = DDR1 (Homo sapiens, UniProt Q08345); assay: HotSpot Kinase Assay, DDR1
Method: as §1

FMS = FMS (Homo sapiens, UniProt P07333); assay: HotSpot Kinase Assay, FMS
c-Kit = c-Kit (Homo sapiens, UniProt P10721); assay: HotSpot Kinase Assay, c-Kit
Sequence of c-Kit (P10721 26-976): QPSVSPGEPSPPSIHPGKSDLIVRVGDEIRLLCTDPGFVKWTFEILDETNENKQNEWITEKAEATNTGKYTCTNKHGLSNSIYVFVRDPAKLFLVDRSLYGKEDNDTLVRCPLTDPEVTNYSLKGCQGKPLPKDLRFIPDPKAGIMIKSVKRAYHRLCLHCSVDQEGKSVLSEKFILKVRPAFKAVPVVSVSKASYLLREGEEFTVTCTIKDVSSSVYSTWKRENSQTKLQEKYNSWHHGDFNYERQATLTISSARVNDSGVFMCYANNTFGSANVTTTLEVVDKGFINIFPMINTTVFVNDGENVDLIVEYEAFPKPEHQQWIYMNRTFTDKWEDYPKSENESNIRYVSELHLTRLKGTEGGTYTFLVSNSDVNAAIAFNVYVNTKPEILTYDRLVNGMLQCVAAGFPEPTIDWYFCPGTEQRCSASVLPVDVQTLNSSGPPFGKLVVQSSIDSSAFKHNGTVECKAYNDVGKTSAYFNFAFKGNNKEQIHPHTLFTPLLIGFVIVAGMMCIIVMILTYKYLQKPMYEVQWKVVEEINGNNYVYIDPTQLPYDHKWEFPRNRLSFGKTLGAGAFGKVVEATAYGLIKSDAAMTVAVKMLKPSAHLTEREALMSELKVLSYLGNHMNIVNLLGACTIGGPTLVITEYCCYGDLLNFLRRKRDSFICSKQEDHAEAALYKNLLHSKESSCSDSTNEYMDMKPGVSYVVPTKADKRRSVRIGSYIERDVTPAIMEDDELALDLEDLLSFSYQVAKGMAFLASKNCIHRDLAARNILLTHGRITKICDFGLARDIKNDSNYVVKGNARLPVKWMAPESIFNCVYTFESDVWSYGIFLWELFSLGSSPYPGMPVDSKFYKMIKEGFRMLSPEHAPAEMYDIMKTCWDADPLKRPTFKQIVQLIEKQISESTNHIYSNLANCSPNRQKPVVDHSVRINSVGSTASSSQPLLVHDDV

Sequence of LOK/STK10 (O94804 whole entry): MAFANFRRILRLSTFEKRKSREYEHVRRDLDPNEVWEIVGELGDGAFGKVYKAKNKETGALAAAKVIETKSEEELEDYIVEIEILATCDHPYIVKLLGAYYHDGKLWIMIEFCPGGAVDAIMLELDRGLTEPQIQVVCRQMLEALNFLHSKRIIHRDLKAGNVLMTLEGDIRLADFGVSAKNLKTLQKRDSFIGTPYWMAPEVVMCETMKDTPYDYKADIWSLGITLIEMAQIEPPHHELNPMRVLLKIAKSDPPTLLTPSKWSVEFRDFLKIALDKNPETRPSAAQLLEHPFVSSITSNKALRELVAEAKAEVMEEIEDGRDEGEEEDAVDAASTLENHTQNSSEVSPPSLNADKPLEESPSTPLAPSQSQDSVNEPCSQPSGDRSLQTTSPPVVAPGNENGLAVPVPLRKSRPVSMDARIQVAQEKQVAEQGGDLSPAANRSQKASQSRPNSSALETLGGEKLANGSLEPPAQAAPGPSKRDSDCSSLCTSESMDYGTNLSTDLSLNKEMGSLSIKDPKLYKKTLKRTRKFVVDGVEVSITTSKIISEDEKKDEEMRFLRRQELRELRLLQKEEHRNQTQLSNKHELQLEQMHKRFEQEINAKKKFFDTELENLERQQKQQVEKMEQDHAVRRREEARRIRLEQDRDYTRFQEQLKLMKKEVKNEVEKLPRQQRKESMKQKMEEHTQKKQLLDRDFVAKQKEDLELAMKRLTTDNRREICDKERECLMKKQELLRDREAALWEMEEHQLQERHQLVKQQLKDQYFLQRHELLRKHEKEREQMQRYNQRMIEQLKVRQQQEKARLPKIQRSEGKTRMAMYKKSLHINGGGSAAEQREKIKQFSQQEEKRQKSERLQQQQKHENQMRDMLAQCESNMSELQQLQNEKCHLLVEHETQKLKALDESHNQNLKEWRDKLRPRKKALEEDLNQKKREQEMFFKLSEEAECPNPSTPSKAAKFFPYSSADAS
Sequence of EPHA2 (P29317 24-976): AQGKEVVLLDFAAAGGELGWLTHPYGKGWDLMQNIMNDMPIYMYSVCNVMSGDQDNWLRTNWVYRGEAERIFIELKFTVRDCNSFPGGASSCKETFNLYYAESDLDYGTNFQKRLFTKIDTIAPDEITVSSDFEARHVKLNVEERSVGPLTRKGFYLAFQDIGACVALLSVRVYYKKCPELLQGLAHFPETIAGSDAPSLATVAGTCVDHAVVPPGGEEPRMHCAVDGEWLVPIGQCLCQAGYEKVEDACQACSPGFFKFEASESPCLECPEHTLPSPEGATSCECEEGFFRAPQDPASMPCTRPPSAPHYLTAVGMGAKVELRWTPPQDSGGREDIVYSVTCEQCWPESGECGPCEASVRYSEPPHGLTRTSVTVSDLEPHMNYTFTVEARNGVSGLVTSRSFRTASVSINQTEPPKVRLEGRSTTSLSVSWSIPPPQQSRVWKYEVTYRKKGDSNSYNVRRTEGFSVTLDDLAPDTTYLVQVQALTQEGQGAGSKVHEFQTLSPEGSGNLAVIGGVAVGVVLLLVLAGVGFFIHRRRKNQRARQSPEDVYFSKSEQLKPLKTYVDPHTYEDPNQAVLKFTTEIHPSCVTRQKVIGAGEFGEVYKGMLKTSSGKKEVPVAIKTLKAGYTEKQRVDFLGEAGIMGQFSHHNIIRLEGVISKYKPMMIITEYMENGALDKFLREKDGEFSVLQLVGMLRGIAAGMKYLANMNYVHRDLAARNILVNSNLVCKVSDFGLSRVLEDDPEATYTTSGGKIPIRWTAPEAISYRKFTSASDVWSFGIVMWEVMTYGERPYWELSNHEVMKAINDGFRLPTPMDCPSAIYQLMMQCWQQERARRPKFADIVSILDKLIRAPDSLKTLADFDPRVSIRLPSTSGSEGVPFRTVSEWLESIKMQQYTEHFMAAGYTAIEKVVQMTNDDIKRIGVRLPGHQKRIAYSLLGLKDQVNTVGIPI
Sequence of DDR1 (Q08345 19-913): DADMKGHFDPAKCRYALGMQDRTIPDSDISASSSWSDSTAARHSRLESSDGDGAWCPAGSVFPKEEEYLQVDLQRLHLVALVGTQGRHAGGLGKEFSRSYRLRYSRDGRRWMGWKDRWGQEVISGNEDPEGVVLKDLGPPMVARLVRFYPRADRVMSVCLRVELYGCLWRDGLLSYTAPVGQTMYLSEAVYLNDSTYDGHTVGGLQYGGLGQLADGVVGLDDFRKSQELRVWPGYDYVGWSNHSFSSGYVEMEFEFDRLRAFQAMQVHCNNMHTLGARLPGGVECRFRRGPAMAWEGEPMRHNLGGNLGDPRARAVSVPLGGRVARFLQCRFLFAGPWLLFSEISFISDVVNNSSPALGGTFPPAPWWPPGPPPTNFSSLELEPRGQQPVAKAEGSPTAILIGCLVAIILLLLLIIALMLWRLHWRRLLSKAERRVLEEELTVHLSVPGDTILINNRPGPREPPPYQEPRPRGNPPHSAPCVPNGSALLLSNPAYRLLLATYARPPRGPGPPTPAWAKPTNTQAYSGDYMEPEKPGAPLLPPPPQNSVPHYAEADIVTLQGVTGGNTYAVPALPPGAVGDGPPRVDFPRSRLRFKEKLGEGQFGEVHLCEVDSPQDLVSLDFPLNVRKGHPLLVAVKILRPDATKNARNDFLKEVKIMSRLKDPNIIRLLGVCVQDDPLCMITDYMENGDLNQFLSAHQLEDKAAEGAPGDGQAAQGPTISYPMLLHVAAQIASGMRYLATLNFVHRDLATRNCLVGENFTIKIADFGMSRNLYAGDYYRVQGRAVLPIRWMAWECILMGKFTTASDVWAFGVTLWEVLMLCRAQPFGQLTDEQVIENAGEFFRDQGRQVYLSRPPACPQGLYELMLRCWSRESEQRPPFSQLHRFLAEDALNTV
Sequence of FMS (P07333 20-972): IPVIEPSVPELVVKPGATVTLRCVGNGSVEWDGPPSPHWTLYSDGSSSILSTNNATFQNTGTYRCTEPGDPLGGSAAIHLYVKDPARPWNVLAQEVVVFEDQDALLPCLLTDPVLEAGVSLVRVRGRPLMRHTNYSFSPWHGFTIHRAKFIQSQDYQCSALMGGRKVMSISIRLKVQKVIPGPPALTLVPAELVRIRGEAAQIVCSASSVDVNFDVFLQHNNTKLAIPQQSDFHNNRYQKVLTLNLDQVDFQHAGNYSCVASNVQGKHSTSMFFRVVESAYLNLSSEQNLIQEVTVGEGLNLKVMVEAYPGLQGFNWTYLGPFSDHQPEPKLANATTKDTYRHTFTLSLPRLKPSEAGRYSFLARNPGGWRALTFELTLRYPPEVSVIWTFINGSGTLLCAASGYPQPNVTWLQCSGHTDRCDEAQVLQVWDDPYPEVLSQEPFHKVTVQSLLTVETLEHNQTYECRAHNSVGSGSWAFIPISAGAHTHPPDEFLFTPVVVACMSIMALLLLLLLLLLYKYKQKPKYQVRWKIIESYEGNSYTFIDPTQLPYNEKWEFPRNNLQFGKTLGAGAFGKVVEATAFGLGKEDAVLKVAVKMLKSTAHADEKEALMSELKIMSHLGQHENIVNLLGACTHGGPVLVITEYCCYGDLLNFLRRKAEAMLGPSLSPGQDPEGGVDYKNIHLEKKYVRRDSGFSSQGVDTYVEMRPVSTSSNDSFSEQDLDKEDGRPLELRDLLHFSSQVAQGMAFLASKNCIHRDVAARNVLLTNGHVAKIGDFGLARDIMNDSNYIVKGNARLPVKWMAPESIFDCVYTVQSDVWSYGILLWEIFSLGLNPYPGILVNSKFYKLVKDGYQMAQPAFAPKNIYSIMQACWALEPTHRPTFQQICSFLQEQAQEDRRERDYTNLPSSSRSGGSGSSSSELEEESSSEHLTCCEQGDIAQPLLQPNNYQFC

## COc1cc2c(Oc3ccc(NC(=O)C4(C(=O)Nc5ccc(F)cc5)CC4)cc3)ccnc2cc1OC(=O)N1C[C@@H]2C[C@H]1CN2C [Compound 2-7]
TYRO3/SKY
  IC50: 100 to 1000 nM
AXL
  IC50: < 100 nM
c-MER
  IC50: < 100 nM
LOK/STK10
  IC50: 100 to 1000 nM
c-MET
  IC50: < 100 nM
EPHA2
  IC50: < 100 nM
KDR/VEGFR2
  IC50: 100 to 1000 nM
DDR1
  IC50: < 100 nM
FMS
  IC50: < 100 nM
c-Kit
  IC50: < 100 nM

## COc1cc2c(Oc3ccc(NC(=O)C4(C(=O)Nc5ccc(F)cc5)CC4)cc3F)ccnc2cc1OC(=O)N1CCN(C)C[C@H]1C [Compound 3-5, 4-(2-fluoro-4-(1-((4-fluorophenyl)carbamoyl)cyclopropane-1-carboxamido)phenoxy)-6-methoxyquinolin-7-yl (R)-2,4-dimethylpiperazine-1-carboxylate]
TYRO3/SKY
  IC50: 100 to 1000 nM
AXL
  IC50: < 100 nM
c-MER
  IC50: < 100 nM
LOK/STK10
  IC50: 100 to 1000 nM
c-MET
  IC50: < 100 nM
EPHA2
  IC50: < 100 nM
KDR/VEGFR2
  IC50: < 100 nM
DDR1
  IC50: < 100 nM
FMS
  IC50: 100 to 1000 nM
c-Kit
  IC50: < 100 nM

## COc1cc2c(Oc3ccc(NC(=O)C4(C(=O)Nc5ccc(F)cc5)CC4)cc3F)ccnc2cc1OC(=O)N1CCN(C)C[C@@H]1C [Compound 3-6]
TYRO3/SKY
  IC50: 100 to 1000 nM
AXL
  IC50: < 100 nM
c-MER
  IC50: < 100 nM
LOK/STK10
  IC50: 100 to 1000 nM
c-MET
  IC50: < 100 nM
EPHA2
  IC50: < 100 nM
KDR/VEGFR2
  IC50: 100 to 1000 nM
DDR1
  IC50: < 100 nM
FMS
  IC50: 100 to 1000 nM
c-Kit
  IC50: 100 to 1000 nM

## COc1cc2nccc(Oc3ccc(NC(=O)C4(C(=O)Nc5ccc(F)cc5)CC4)cc3)c2cc1OC(=O)N1CCN(C)CC1 [Compound 5-10]
TYRO3/SKY
  IC50: < 100 nM
AXL
  IC50: < 100 nM
c-MER
  IC50: < 100 nM
LOK/STK10
  IC50: 100 to 1000 nM
c-MET
  IC50: < 100 nM
EPHA2
  IC50: < 100 nM
KDR/VEGFR2
  IC50: < 100 nM
DDR1
  IC50: < 100 nM
FMS
  IC50: < 100 nM
c-Kit
  IC50: < 100 nM

## COc1cc2c(Oc3ccc(NC(=O)C4(C(=O)Nc5ccc(F)cc5)CC4)cc3)ccnc2cc1OC(=O)N1[C@H](C)CNC[C@@H]1C [Compound 6-2]
TYRO3/SKY
  IC50: 100 to 1000 nM
AXL
  IC50: < 100 nM
c-MER
  IC50: 100 to 1000 nM
LOK/STK10
  IC50: 100 to 1000 nM
c-MET
  IC50: 100 to 1000 nM
EPHA2
  IC50: 100 to 1000 nM
KDR/VEGFR2
  IC50: 100 to 1000 nM
DDR1
  IC50: < 100 nM
FMS
  IC50: 100 to 1000 nM
c-Kit
  IC50: < 100 nM

## COc1cc2c(Oc3ccc(NC(=O)C4(C(=O)Nc5ccc(F)cc5)CC4)cc3)ccnc2cc1OC(=O)N1[C@H](C)CN(C)C[C@@H]1C [Compound 6-3]
TYRO3/SKY
  IC50: 100 to 1000 nM
AXL
  IC50: < 100 nM
c-MER
  IC50: < 100 nM
LOK/STK10
  IC50: 100 to 1000 nM
c-MET
  IC50: 100 to 1000 nM
EPHA2
  IC50: 100 to 1000 nM
KDR/VEGFR2
  IC50: 100 to 1000 nM
DDR1
  IC50: < 100 nM
FMS
  IC50: 100 to 1000 nM
c-Kit
  IC50: < 100 nM

Reference: US11358949B2, “Carbamate and urea compounds as multikinase inhibitors” (ANGEX PHARMACEUTICAL, INC., priority 2017, dated 2022)
